# Measured values as given in ChEMBL document CHEMBL4049412, “Evolution of matrinic ethanol derivatives as anti-HCV agents from matrine skeleton” (Bioorg Med Chem Lett, 2017).
# Legend:
# [1] = test system: Hepatitis C virus; experiment: Antiviral activity against Hepatitis C virus infected in human Huh7.5 cells assessed as reduction in viral RNA level after 72 hrs by RT-PCR method; format: functional, cell-based, Hepacivirus hominis; conditions: Huh7.5, 72 h
# [2] = Cytotoxicity against human Huh7.5 cells after 72 hrs by MTT assay; format: cell-based
# [3] = Selectivity index, ratio of CC50 for human Huh7.5 cells to EC50 for Hepatitis C virus infected in human Huh7.5 cells; format: toxicity, cell-based; conditions: read-out: Ratio CC50/EC50
# [4] = Acute toxicity in Kunming mouse administered as single oral dose measured for 7 days; conditions: in vivo
# [5] = Tmax in Sprague-Dawley rat at 25 mg/kg, po administered as single dose; format: ADME, organism-based; conditions: in vivo
# [6] = Cmax in Sprague-Dawley rat at 25 mg/kg, po administered as single dose; format: ADME, organism-based; set-up: dose 25 mg/kg, route oral; conditions: in vivo
# [7] = AUC (0 to t) in Sprague-Dawley rat at 25 mg/kg, po administered as single dose; format: ADME, organism-based; conditions: in vivo
# [8] = AUC (0 to infinity) in Sprague-Dawley rat at 25 mg/kg, po administered as single dose; format: ADME, organism-based; set-up: dose 25 mg/kg, route oral, time infinity; conditions: in vivo
# [9] = Mean residence time in Sprague-Dawley rat at 25 mg/kg, po administered as single dose; format: ADME, organism-based; conditions: in vivo
# [10] = Half life in Sprague-Dawley rat at 25 mg/kg, po administered as single dose; format: ADME, organism-based; conditions: in vivo
EC50 [1],Structure (SMILES),CC50 at 72 h [2],selectivity ratio [3],LD50 at 168 h [4],Tmax [5],Cmax [6],AUC(0-t) [7],AUC(0-inf) [8],MRT [9],half-life [10]
114 µM,O=C(O)C[C@@H]1[C@H]2CCCN3CCC[C@@H](CN1Cc1ccccc1)[C@@H]23,> 500 µM,> 4.39,,,,,,,
104 µM,O=C(O)C[C@@H]1[C@H]2CCCN3CCC[C@@H](CN1Cc1ccc([N+](=O)[O-])cc1)[C@@H]23,> 500 µM,> 4.81,,,,,,,
7.14 µM,COC(=O)C[C@@H]1[C@H]2CCCN3CCC[C@@H](CN1Cc1ccccc1C)[C@@H]23,230 µM,32.2,,,,,,,
3.5 µM,O=[N+]([O-])c1ccc(CN2C[C@@H]3CCCN4CCC[C@@H]([C@H]34)[C@H]2CCO)cc1,118 µM,33.7,,,,,,,
21.2 µM,O=C(O)C[C@@H]1[C@H]2CCCN3CCC[C@@H](CN1Cc1ccc(Cl)c(Cl)c1)[C@@H]23,141 µM,6.65,,,,,,,
> 167 µM,O=C(O)C[C@@H]1[C@H]2CCCN3CCC[C@@H](CN1Cc1ccc(C(F)(F)F)cc1)[C@@H]23,244 µM,,,,,,,,
8.06 µM,CCOc1ccc(CN2C[C@@H]3CCCN4CCC[C@@H]([C@H]34)[C@H]2CC(=O)OC)cc1OC,> 500 µM,> 62,,,,,,,
3.03 µM,COC(=O)C[C@@H]1[C@H]2CCCN3CCC[C@@H](CN1C(=O)c1ccc(OC)cc1)[C@@H]23,> 500 µM,> 165,,,,,,,
1.09 µM,COC(=O)C[C@@H]1[C@H]2CCCN3CCC[C@@H](CN1Cc1ccc(F)cc1F)[C@@H]23,128 µM,118,,,,,,,
2.29 µM,COC(=O)C[C@@H]1[C@H]2CCCN3CCC[C@@H](CN1Cc1ccc(C)cc1)[C@@H]23,215 µM,93.7,,,,,,,
22.7 µM,COc1ccc(CN2C[C@@H]3CCCN4CCC[C@@H]([C@H]34)[C@H]2CCCC(=O)O)cc1,> 500 µM,> 22,,,,,,,
47.5 µM,Cc1ccc(CN2C[C@@H]3CCCN4CCC[C@@H]([C@H]34)[C@H]2CC(=O)O)cc1,> 500 µM,> 10.5,,,,,,,
86.4 µM,Cc1cccc(CN2C[C@@H]3CCCN4CCC[C@@H]([C@H]34)[C@H]2CC(=O)O)c1,> 500 µM,> 5.78,,,,,,,

# Further lines, the compound ahead of its results:
Structure (SMILES),EC50 [1],CC50 at 72 h [2],selectivity ratio [3],LD50 at 168 h [4],Tmax [5],Cmax [6],AUC(0-t) [7],AUC(0-inf) [8],MRT [9],half-life [10]
COc1ccc(C(=O)N2C[C@@H]3CCCN4CCC[C@@H]([C@H]34)[C@H]2CCCC(C)(C)O)cc1,24.6 µM,362 µM,14.7,,,,,,,
COC(=O)C[C@@H]1[C@H]2CCCN3CCC[C@@H](CN1Cc1ccc(OC)cc1)[C@@H]23,7.81 µM,392 µM,50.2,> 250 mg/kg,0.5 h,360 nM,0.67 µM·h,0.69 µM·h,2.25 h,6.36 h
CCCN1C[C@@H]2CCCN3CCC[C@@H]([C@H]23)[C@H]1CCO,4.95 µM,> 500 µM,> 101,,,,,,,
COc1ccc(CN2C[C@@H]3CCCN4CCC[C@@H]([C@H]34)[C@H]2CCO)cc1,3.2 µM,309 µM,96.6,> 250 mg/kg,0.33 h,310 nM,0.5 µM·h,0.56 µM·h,1.6 h,2.08 h
O=C(O)C[C@@H]1[C@H]2CCCN3CCC[C@@H](CN1Cc1ccncc1)[C@@H]23,47.2 µM,> 500 µM,> 10.6,,,,,,,
CCCCN1C[C@@H]2CCCN3CCC[C@@H]([C@H]23)[C@H]1CCO,2.58 µM,> 500 µM,> 193,,,,,,,
OCC[C@@H]1[C@H]2CCCN3CCC[C@@H](CN1Cc1ccc(F)cc1F)[C@@H]23,5.18 µM,217 µM,41.9,,,,,,,
COc1ccc(CN2C[C@@H]3CCCN4CCC[C@@H]([C@H]34)[C@H]2CC(=O)O)cc1,27.6 µM,> 500 µM,> 18.1,> 500 mg/kg,0.42 h,4960 nM,8.59 µM·h,8.59 µM·h,2.16 h,2.54 h
COc1cccc(CN2C[C@@H]3CCCN4CCC[C@@H]([C@H]34)[C@H]2CCO)c1OC,6.71 µM,305 µM,45.5,,,,,,,
CCOc1ccc(CN2C[C@@H]3CCCN4CCC[C@@H]([C@H]34)[C@H]2CCO)cc1OC,5.36 µM,> 500 µM,> 93.3,,,,,,,
